Test results from US5466671A, “Apidaecin-type peptide antibiotics with improved activities and/or different antibacterial spectrum” (priority 1994, dated 1995).
Residues, ends and D or L forms follow the SMILES beside them.

Columns and labels:
[1] = tested on: Escherichia coli (ATCC11775); test: Inhibition zone assay (agar plate); type: cell-based; details: for inhibition zone diameter (number of plus signs): agar plate, 50 nanomoles/well, 3 mm wells
S. typhimurium = test: Minimal inhibitory concentration (liquid culture); details: inoculum 8 × 10^6 CFU/ml; a-b = highest concentration with growth - lowest without growth
Haemophilus influenzae = test: Inhibition zone assay (agar plate); type: cell-based; details: 50 nanomoles/well, 3 mm wells
Enterobacter cloacae = test: Inhibition zone assay (agar plate); type: cell-based; details: for inhibition zone diameter (number of plus signs): agar plate, 50 nanomoles/well, 3 mm wells
Yersinia enterocolitica = test: Inhibition zone assay (agar plate); type: cell-based; details: 50 nanomoles/well, 3 mm wells
E. coli 25922 = test: Minimal inhibitory concentration (liquid culture); details: inoculum 1100 CFU/ml; a-b = highest concentration with growth - lowest without growth
[2] = tested on: Acinetobacter calcoaceticus; test: Inhibition zone assay (agar plate); type: cell-based; details: for inhibition zone diameter (number of plus signs): agar plate, 50 nanomoles/well, 3 mm wells
E. coli 11775 = test: Minimal inhibitory concentration (liquid culture); details: for minimal inhibitory concentration (MIC): a-b = highest concentration with growth - lowest without growth
Rhizobium meliloti = test: Inhibition zone assay (agar plate); type: cell-based; details: 50 nanomoles/well, 3 mm wells
Y. enterocolitica = test: Minimal inhibitory concentration (liquid culture); details: inoculum 5000 CFU/ml; a-b = highest concentration with growth - lowest without growth
Legionella pneumophila = type: cell-based; details: agar plate, 50 nanomoles/well, 3 mm wells
M. morganii = test: Minimal inhibitory concentration (liquid culture); details: inoculum 400 CFU/ml; a-b = highest concentration with growth - lowest without growth
Shigella dysenteriae = type: cell-based
Salmonella typhimurium = test: Inhibition zone assay (agar plate); type: cell-based; details: for inhibition zone diameter (number of plus signs): agar plate, 50 nanomoles/well, 3 mm wells
Erwinia amylovora = test: Inhibition zone assay (agar plate); type: cell-based; details: for inhibition zone diameter (number of plus signs): agar plate, 50 nanomoles/well, 3 mm wells
E. coli 23802 = test: Minimal inhibitory concentration (liquid culture); details: inoculum 5000 CFU/ml; a-b = highest concentration with growth - lowest without growth
A. calcoaceticus = test: Minimal inhibitory concentration (liquid culture); details: inoculum 16 × 10^6 CFU/ml; a-b = highest concentration with growth - lowest without growth
[3] = tested on: Agrobacterium tumefaciens; test: Inhibition zone assay (agar plate); type: cell-based; details: for inhibition zone diameter (number of plus signs): agar plate, 50 nanomoles/well, 3 mm wells
Pseudomonas syringae = test: Inhibition zone assay (agar plate); type: cell-based; details: for inhibition zone diameter (number of plus signs): agar plate, 50 nanomoles/well, 3 mm wells
E. coli Apid^R = test: Minimal inhibitory concentration (liquid culture); type: cell-based; details: a-b = highest concentration with growth - lowest without growth
Description: For details see `Experimental Procedures`.

Klebsiella pneumoniae = test: Inhibition zone assay (agar plate); type: cell-based; details: for inhibition zone diameter (number of plus signs): agar plate, 50 nanomoles/well, 3 mm wells
Escherichia coli (K514) = type: cell-based; details: agar plate, 50 nanomoles/well, 3 mm wells
Morganella morganii = test: Inhibition zone assay (agar plate); type: cell-based; details: 50 nanomoles/well, 3 mm wells
Campylobacter jejuni = test: Inhibition zone assay (agar plate); type: cell-based; details: 50 nanomoles/well, 3 mm wells
E. coli D22 = type: cell-based; details: 50 nanomoles per well (3 mm diameter)
Salmonella typhi = type: cell-based; details: 50 nanomoles per well (3 mm diameter)
[4] = 50 nanomoles per well (3 mm diameter)

| Compound | inhibition zone diameter (number of plus signs) [1] | minimal inhibitory concentration (MIC) (S. typhimurium) [µg/mL] | inhibition zone diameter (number of plus signs) (Haemophilus influenzae) | inhibition zone diameter (number of plus signs) (Enterobacter cloacae) | inhibition zone diameter (number of plus signs) (Yersinia enterocolitica) | minimal inhibitory concentration (MIC) (E. coli 25922) [µg/mL] | inhibition zone diameter (number of plus signs) [2] | minimal inhibitory concentration (MIC) (E. coli 11775; inoculum 16 × 10^6 CFU/ml) [µg/mL] | minimal inhibitory concentration (MIC) (E. coli 11775; inoculum 1200 CFU/ml) [µg/mL] | inhibition zone diameter (number of plus signs) (Rhizobium meliloti) | minimal inhibitory concentration (MIC) (Y. enterocolitica) [µg/mL] | minimal inhibitory concentration (MIC) (M. morganii) [µg/mL] | inhibition zone diameter (number of plus signs) (Salmonella typhimurium) | inhibition zone diameter (number of plus signs) (Erwinia amylovora) | minimal inhibitory concentration (MIC) (E. coli 23802) [µg/mL] | minimal inhibitory concentration (MIC) (A. calcoaceticus) [µg/mL] | inhibition zone diameter (number of plus signs) [3] | inhibition zone diameter (number of plus signs) (Pseudomonas syringae) | minimal inhibitory concentration (MIC) (E. coli Apid^R; inoculum 1000 CFU/ml) [µg/mL] | inhibition zone diameter (number of plus signs) (Klebsiella pneumoniae) | also measured |
| --- | --- | --- | --- | --- | --- | --- | --- | --- | --- | --- | --- | --- | --- | --- | --- | --- | --- | --- | --- | --- | --- |
| CC[C@H](C)[C@H](NC(=O)[C@H](Cc1ccc(O)cc1)NC(=O)[C@@H](NC(=O)[C@@H]1CCCN1C(=O)[C@H](CCCNC(=N)N)NC(=O)[C@H](CC(N)=O)NC(=O)[C@H](C)N)C(C)C)C(=O)N1CCC[C@H]1C(=O)N1CCC[C@H]1C(=O)N1CCC[C@H]1C(=O)N[C@@H](CCCNC(=N)N)C(=O)N1CCC[C@H]1C(=O)N1CCC[C@H]1C(=O)N[C@@H](Cc1c[nH]cn1)C(=O)N1CCC[C@H]1C(=O)N[C@@H](CCCNC(=N)N)C(=O)N[C@@H](CC(C)C)C(=O)O [Bb+A] (H-ANRPVYIPPPRPPHPRL-OH) | ++++ ((++++) 15-19 mm) | 0.5 to 1 | +++ ((+++) 10-14 mm) | +++ ((+++) 10-14 mm) | +++ ((+++) 10-14 mm) | 0.5 to 1 | ++ ((++) 7-9 mm) | 0.5 to 1 | 0.05 to 0.1 | ++++ ((++++) 15-19 mm) | 5 to 10 | 20 to 40 | +++ ((+++) 10-14 mm) | ++++ ((++++) 15-19 mm) | 10 to 20 | 2 to 10 | ++++ ((++++) 15-19 mm) | +++++ ((+++++) 20 or more min) | > 40 | ++ ((++) 7-9 mm) | inhibition zone diameter (number of plus signs) (Legionella pneumophila): ++ ((++) 7-9 mm); inhibition zone diameter (number of plus signs) (Shigella dysenteriae; agar plate, 50 nanomoles/well, 3 mm wells): + +++; minimal inhibitory concentration (MIC) (E. coli Apid^R; inoculum 12 × 10^6 CFU/ml): > 40 µg/mL |
| CC[C@H](C)[C@H](NC(=O)[C@H](Cc1ccc(O)cc1)NC(=O)[C@@H](NC(=O)[C@@H]1CCCN1C(=O)[C@H](CCCNC(=N)N)NC(=O)[C@@H](N)CC(N)=O)C(C)C)C(=O)N1CCC[C@H]1C(=O)N1CCC[C@H]1C(=O)N1CCC[C@H]1C(=O)N[C@@H](CCCNC(=N)N)C(=O)N1CCC[C@H]1C(=O)N1CCC[C@H]1C(=O)N[C@@H](Cc1c[nH]cn1)C(=O)N1CCC[C@H]1C(=O)N[C@@H](CCCNC(=N)N)C(=O)N[C@@H](CC(C)C)C(=O)O [Bb-A] (H-NRPVYIPPPRPPHPRL-OH) | ++++ ((++++) 15-19 mm) | 0.5 to 1 | ++ ((++) 7-9 mm) | +++ ((+++) 10-14 mm) | +++ ((+++) 10-14 mm) | 1 to 5 | ++ ((++) 7-9 mm) | 1 to 5 | 0.1 to 0.5 | +++++ ((+++++) 20 or more min) | 1 to 5 | > 40 | +++ ((+++) 10-14 mm) | ++++ ((++++) 15-19 mm) | 10 to 20 | > 20 | ++++ ((++++) 15-19 mm) | ++++ ((++++) 15-19 mm) | > 40 | ++ ((++) 7-9 mm) | inhibition zone diameter (number of plus signs) (Legionella pneumophila): + ((+) 5-6 mm); minimal inhibitory concentration (MIC) (E. coli Apid^R; inoculum 12 × 10^6 CFU/ml): > 40 µg/mL |
| CC[C@H](C)[C@H](NC(=O)[C@@H]1CCCN1C(=O)[C@H](C)NC(=O)[C@@H]1CCCN1C(=O)[C@H](CCCNC(=N)N)NC(=O)[C@@H]1CCCN1C(=O)[C@H](CCCCN)NC(=O)[C@H](CC(N)=O)NC(=O)[C@@H]1CCCN1C(=O)[C@H](CCCCN)NC(=O)CN)C(=O)N[C@@H](CCCCN)C(=O)N1CCC[C@H]1C(=O)N[C@@H](CCCNC(=N)N)C(=O)N1CCC[C@H]1C(=O)N1CCC[C@H]1C(=O)N[C@@H](Cc1c[nH]cn1)C(=O)N1CCC[C@H]1C(=O)N[C@@H](CCCNC(=N)N)C(=O)N[C@@H](CC(C)C)C(=O)O [Cd 2+, Gly--Lys--Pro--Asn--Lys--Pro--Arg--Pro--Ala--Pro--Ile--Lys--Pro--Arg--Pro--Pro--His--Pro--Arg--Leu] (H-GKPNKPRPAPIKPRPPHPRL-OH) | +++ ((+++) 10-14 mm) | 0.1 to 0.5 | ++++ ((++++) 15-19 mm) | +++ ((+++) 10-14 mm) |  | 0.1 to 0.5 | + ((+) 5-6 mm) | 0.1 to 0.5 | 0.1 to 0.5 | ++++ ((++++) 15-19 mm) | 10 to 20 | 1 to 5 | +++ ((+++) 10-14 mm) | ++ ((++) 7-9 mm) | 0.1 to 0.5 | 10 to 20 | +++ ((+++) 10-14 mm) | +++ ((+++) 10-14 mm) | 0.5 to 1 | ++ ((++) 7-9 mm) | inhibition zone diameter (number of plus signs) (Escherichia coli (K514)): ++ ((++) 7-9 mm); inhibition zone diameter (number of plus signs) (Morganella morganii): ++ ((++) 7-9 mm); inhibition zone diameter (number of plus signs) (Campylobacter jejuni): +++++ ((+++++) 20 or more min); minimal inhibitory concentration (MIC) (E. coli Apid^R; inoculum 12 × 10^6 CFU/ml): 0.5 to 1.5 µg/mL; minimal inhibitory concentration (MIC) (E. coli Apid^R; inoculum 12 × 10^6 CFU/ml, listed as Cd2+): measurable activities |
| CC(C)C[C@H](NC(=O)[C@H](CCCNC(=N)N)NC(=O)[C@@H]1CCCN1C(=O)[C@H](Cc1c[nH]cn1)NC(=O)[C@@H]1CCCN1C(=O)[C@@H]1CCCN1C(=O)[C@H](CCCNC(=N)N)NC(=O)[C@@H]1CCCN1C(=O)[C@@H]1CCCN1C(=O)[C@@H](NC(=O)[C@H](CCC(N)=O)NC(=O)[C@H](CCC(N)=O)NC(=O)[C@@H]1CCCN1C(=O)[C@H](CCCNC(=N)N)NC(=O)[C@@H]1CCCN1C(=O)[C@H](CCCCN)NC(=O)CN)C(C)C)C(=O)O [Ho +, G K P R P Q Q V P P R P P H P R L] (H-GKPRPQQVPPRPPHPRL-OH) | +++ ((+++) 10-14 mm) | 0.5 to 1 | +++ ((+++) 10-14 mm) | +++ ((+++) 10-14 mm) | ++++ ((++++) 15-19 mm) | 0.1 to 0.5 | + ((+) 5-6 mm) | 0.1 to 0.5 | 0.1 to 0.5 | ++++ ((++++) 15-19 mm) | 1 to 5 | 1 to 5 | +++ ((+++) 10-14 mm) | +++ ((+++) 10-14 mm) | 0.5 to 1 | 2 to 10 | ++ ((++) 7-9 mm) | +++ ((+++) 10-14 mm) | 1 to 5 | +++ ((+++) 10-14 mm) | Inhibition zones: in mm diameter [1, 4]: 15 mm; Inhibition zones: in mm diameter (Enterobacter cloacae; [4]): 15 mm; Inhibition zones: in mm diameter (E. coli D22): 14 mm; Inhibition zones: in mm diameter [2, 4]: 5 mm; inoculum effect on inhibition of viability (E. coli 11775; inoculum sizes differing by four orders of magnitude): equally well; Inhibition zones: in mm diameter (Shigella dysenteriae; [4]): 18 mm; inhibition zone diameter (number of plus signs) (Morganella morganii): ++ ((++) 7-9 mm); Inhibition zones: in mm diameter (Salmonella typhimurium; [4]): 14 mm; Inhibition zones: in mm diameter (Erwinia amylovora; [4]): 12 mm; Inhibition zones: in mm diameter (Salmonella typhi): 20 mm; Inhibition zones: in mm diameter [3, 4]: 12 mm; Inhibition zones: in mm diameter (Pseudomonas syringae; [4]): 13 mm; Inhibition zones: in mm diameter (Klebsiella pneumoniae; [4]): 15 mm |
